Entries after “also recorded” stand apart in the source; their conditions may differ.
Assays:
Type in all cases: physicochemical
[1] = Solid-state stability at 75° C.
Description: The stability of ON.1210.Na in the solid state is determined by exposing the drug at 75° C. over a prolonged time. The sample is crimped in a 10 mL injection vial and kept at the above temperature. The sample is collected after 15 days and one month and reconstituted with diluting solution and its concentration is determined by HPLC. Appearance of any additional peak in the chromatogram is also noted. A control sample is represented by ON.1210.Na not exposed to 75° C. and reconstituted to a known concentration with diluting solution.

[2] = Octanol-water partition coefficient; conditions: 25° C., n-octanol and HPLC water, triplicate; pH of the aqueous phase 8.1
Description: The octanol-water partition coefficient of the drug is determined at 25° C. Equal volumes (10 ml) saturated solution of ON.1210.Na in n-octanol and HPLC water are equilibrated at 25° C. in a shaking water bath for 48 hours. The pH of the aqueous phase is also determined. At a predetermined time, a known volume of both the organic and aqueous phase is collected via a filtered needle. Subsequently, the concentration of ON.1210.Na is determined by HPLC after adequate dilution.
The octanol-water partition coefficient of the drug is determined at 25° C. using equal volumes (10 ml) of saturated solution of ON.1210.Na in n-octanol and HPLC water. Similarly, the partition coefficient is determined using simulated gastric and intestinal fluid without enzymes. The octanol-water partition coefficient is determined using the following equation: […]

[3] = pH stability testing at 75° C. (HPLC)
Description: (§1) The drug is dissolved in different pH buffers as outlined in Table 20. One hundred mL of each solution is prepared in a volumetric flask. Each solution is filtered through a 0.22 um filter. Approximately, four mL of the above solution is placed in 5 ml ampoules and sealed by a propane torch. The pH of the solution is determined at time zero and at each time interval. All the ampoules are placed in a 75° C. constant temperature oven. Any color changes or precipitation in the solution during the sample collection is visually observed. Concentration of the drug is determined at time zero and other time intervals by HPLC.
as §1, with “prepared in volumetric flask.” for “prepared in a volumetric flask.”, “filtered through 0.22 um” for “filtered through a 0.22 um”, “by HPLC. The pH and drug content of each sample are determined.” for “by HPLC.”
The data from the pH stability study is analyzed by plotting Log (conc.) versus time.
The rate constant for the degradation is determined using a linear regression at each individual pH.

## O=C([O-])c1ccc(/C=C/S(=O)(=O)Cc2ccc(Cl)cc2)cc1.[Na+] [ON.1210.Na, (E)-4-Carboxystyryl-4-chlorobenzylsulfone, Sodium Salt]
[1]
  accelerated solid-state stability of the bulk drug substance: no evidence of degradation
[2]
  octanol:water partition coefficient: 1.28-2.87
[3]; aqueous buffers pH 4 to 9, 75° C., Sodium Salt
  pH-stability profile: better stability at neutral and biological pH but degradation is rapid under acidic condition; also recorded: dramatically improved as the pH is increased towards the neutral pH
[3]; aqueous buffers, 75° C., Sodium Salt
  order of the degradation reaction: pseudo-first-order rate; also recorded: pseudo first order reaction
[3]; biological pH
  stability in an aqueous environment: quite stable in an aqueous environment at biological pH
[3]; pH 4.0, 75° C.
  Kobs, first order rate constant for the degradation: 0.0621 day⁻¹
[3]; pH 4 buffer, 75° C., 0 hours, pH of the solution 4.03
  Concentration of the ON.1210.Na determined by HPLC during the stability study: 2704.7 ng/mL
[3]; pH 4 buffer, 75° C., 1 day, pH of the solution 4.3
  Concentration of the ON.1210.Na determined by HPLC during the stability study: 2659 ng/mL
[3]; pH 4 buffer, 75° C., 3 days, pH of the solution 4.12
  Concentration of the ON.1210.Na determined by HPLC during the stability study: 2633.1 ng/mL
[3]; pH 4 buffer, 75° C., 5 days, pH of the solution 4.5
  Concentration of the ON.1210.Na determined by HPLC during the stability study: 2734.4 ng/mL
[3]; pH 4 buffer, 75° C., 42 days, pH of the solution 3.84
  Concentration of the ON.1210.Na determined by HPLC during the stability study: 117.1 ng/mL
[3]; pH 4 buffer, 75° C., 54 days, pH of the solution 3.74
  Concentration of the ON.1210.Na determined by HPLC during the stability study: 161.4 ng/mL
[3]; pH 5.0, 75° C.
  Kobs, first order rate constant for the degradation: 0.0295 day⁻¹
[3]; pH 5 buffer, 75° C., 0 hours, pH of the solution 5.03
  Concentration of the ON.1210.Na determined by HPLC during the stability study: 4457.7 ng/mL
[3]; pH 5 buffer, 75° C., 1 day, pH of the solution 5.18
  Concentration of the ON.1210.Na determined by HPLC during the stability study: 4394 ng/mL
[3]; pH 5 buffer, 75° C., 3 days, pH of the solution 5.11
  Concentration of the ON.1210.Na determined by HPLC during the stability study: 4429.5 ng/mL
[3]; pH 5 buffer, 75° C., 5 days, pH of the solution 5.14
  Concentration of the ON.1210.Na determined by HPLC during the stability study: 4471.4 ng/mL
[3]; pH 5 buffer, 75° C., 10 days, pH of the solution 5.2
  Concentration of the ON.1210.Na determined by HPLC during the stability study: 1017 ng/mL
[3]; pH 5 buffer, 75° C., 17 days, pH of the solution 5.21
  Concentration of the ON.1210.Na determined by HPLC during the stability study: 838.2 ng/mL
[3]; pH 5 buffer, 75° C., 28 days, pH of the solution 4.71
  Concentration of the ON.1210.Na determined by HPLC during the stability study: 1334 ng/mL
[3]; pH 5 buffer, 75° C., 35 days, pH of the solution 4.93
  Concentration of the ON.1210.Na determined by HPLC during the stability study: 2813.7 ng/mL
[3]; pH 5 buffer, 75° C., 42 days
  Concentration of the ON.1210.Na determined by HPLC during the stability study: 1304.9 ng/mL
[3]; pH 5 buffer, 75° C., 54 days, pH of the solution 4.76
  Concentration of the ON.1210.Na determined by HPLC during the stability study: 953.9 ng/mL
[3]; pH 6.0, 75° C.
  Kobs, first order rate constant for the degradation: 0.0069 day⁻¹
[3]; pH 6 buffer, 75° C., 0 hours, pH of the solution 6.02
  Concentration of the ON.1210.Na determined by HPLC during the stability study: 22390 ng/mL
[3]; pH 6 buffer, 75° C., 1 day, pH of the solution 6.12
  Concentration of the ON.1210.Na determined by HPLC during the stability study: 22300 ng/mL
[3]; pH 6 buffer, 75° C., 3 days, pH of the solution 6.21
  Concentration of the ON.1210.Na determined by HPLC during the stability study: 22360 ng/mL
[3]; pH 6 buffer, 75° C., 5 days, pH of the solution 6.14
  Concentration of the ON.1210.Na determined by HPLC during the stability study: 22494.5 ng/mL
[3]; pH 6 buffer, 75° C., 10 days, pH of the solution 6.17
  Concentration of the ON.1210.Na determined by HPLC during the stability study: 19086.3 ng/mL
[3]; pH 6 buffer, 75° C., 17 days, pH of the solution 6.21
  Concentration of the ON.1210.Na determined by HPLC during the stability study: 18150 ng/mL
[3]; pH 6 buffer, 75° C., 28 days, pH of the solution 5.81
  Concentration of the ON.1210.Na determined by HPLC during the stability study: 17540.1 ng/mL
[3]; pH 6 buffer, 75° C., 35 days, pH of the solution 5.92
  Concentration of the ON.1210.Na determined by HPLC during the stability study: 17397.9 ng/mL
[3]; pH 6 buffer, 75° C., 42 days, pH of the solution 5.94
  Concentration of the ON.1210.Na determined by HPLC during the stability study: 16000 ng/mL
[3]; pH 6 buffer, 75° C., 54 days, pH of the solution 5.90
  Concentration of the ON.1210.Na determined by HPLC during the stability study: 14717.4 ng/mL
[3]; pH 7.4, 75° C.
  Kobs, first order rate constant for the degradation: 0.0037 day⁻¹
[3]; pH 7.4 buffer, 75° C., 0 hours, pH of the solution 7.41
  Concentration of the ON.1210.Na determined by HPLC during the stability study: 485952 ng/mL
[3]; pH 7.4 buffer, 75° C., 1 day, pH of the solution 7.42
  Concentration of the ON.1210.Na determined by HPLC during the stability study: 485820.6 ng/mL
[3]; pH 7.4 buffer, 75° C., 3 days, pH of the solution 7.52
  Concentration of the ON.1210.Na determined by HPLC during the stability study: 481463.7 ng/mL

Reference: patent US20110028504A1, “Formulation of radioprotective alpha beta unsaturated aryl sulfones” (ONCONOVA THERAPEUTICS, INC., priority 2005, published 2011)
